Measurements from patent US20230183678A1, “IN-CELL CONTINUOUS TARGET-GENE EVOLUTION, SCREENING AND SELECTION” (COMMISSARIAT À L'ENERGIE ATOMIQUE ET AUX ENERGIES …, priority 2020, published 2023).

Assays:
[1] = target: T1, PDZ (Homo sapiens, UniProt P78352); settings: cI-PDZ/rpoA-CRIPT pair; read-out: affinity; cited from earlier work
T1 construct: expressed in transfected cells; host or cells: E. coli BL21(DE3) Star or Acella, plasmid VN419

[2] = target: T2, rpoA-stop (premature stop codon resulting in no fusion peptide) (UniProt P0A7Z4 1-248, limits assumed); assay: bacterial two-hybrid coupled to Bxb1 DNA invertase; sequencing of colonies showed no inversion
T2 construct: also called VN376
T2 sequence (P0A7Z4 1-248 limits assumed): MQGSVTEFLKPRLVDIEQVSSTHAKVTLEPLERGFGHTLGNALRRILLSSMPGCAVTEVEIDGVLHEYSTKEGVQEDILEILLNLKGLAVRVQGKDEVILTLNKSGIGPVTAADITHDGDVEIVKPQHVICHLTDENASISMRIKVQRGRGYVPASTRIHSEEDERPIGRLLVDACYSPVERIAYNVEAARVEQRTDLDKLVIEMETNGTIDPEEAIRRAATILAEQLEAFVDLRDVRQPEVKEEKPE

For CRIPT [rpoA-CRIPT], the Kd [1] is listed as 800 nM.

B1: cI-PDZ (DBD-target fusion) (other)
chain: MSTKKKPLTQEQLEDARRLKAIYEKKKNELGLSQESVADKMGMGQSGVGALFNGINALNAYNAALLAKILKVSVEEFSPSIAREIYEMYEAVSMQPSLRSEYEYPVFSHVQAGMFSPELRTFTKGDAERWVSTTKKASDSAFWLEVEGNSMTAPTGSKPSFPDGMLILVDPEQAVEPGDFCIARLGGDEFTFKKLIRDSGQVFLQPLNPQYPMIPCNESCSVVGKVIASQWPEETFGAAALGEEDIPREPRRIVIHRGSTGLGFNIVGGEDGEGIFISFILAGGPADLSGELRKGDQILSVNGVDLRNASHEQAAIALKNAGQTVTIIAQYKPEEYSRFEAK
notes: Expressed in E. coli BL21(DE3) Star or Acella cells from plasmid VN419
B1: no binding [2].
